Numbered stars: 1 amine (or outer) side, 2 acyl side, 3 side chain; on linkers, the order of the positions; unused ones are H or OH. Square brackets hold non-standard residues; d marks the D form. Side chains are listed from the residue outwards. Peptide text beside a SMILES is read from it. * marks the point of attachment. C18 diacid = O=C(O)CCCCCCCCCCCCCCCCC(=O)*; γGlu = O=C(O)[C@H](CCC(=O)[*:2])N[*:1]; Aib = CC(C)(N)C(=O)O
Molecular target: T1, human GLP-1 receptor (Homo sapiens, UniProt P43220)
T1 construct: expressed in transfected cells; host or cells: BHK cells (parent BHKTS13), clone FCW467-12A/KZ10-1, with CRE luciferase
T1 sequence (P43220 24-463): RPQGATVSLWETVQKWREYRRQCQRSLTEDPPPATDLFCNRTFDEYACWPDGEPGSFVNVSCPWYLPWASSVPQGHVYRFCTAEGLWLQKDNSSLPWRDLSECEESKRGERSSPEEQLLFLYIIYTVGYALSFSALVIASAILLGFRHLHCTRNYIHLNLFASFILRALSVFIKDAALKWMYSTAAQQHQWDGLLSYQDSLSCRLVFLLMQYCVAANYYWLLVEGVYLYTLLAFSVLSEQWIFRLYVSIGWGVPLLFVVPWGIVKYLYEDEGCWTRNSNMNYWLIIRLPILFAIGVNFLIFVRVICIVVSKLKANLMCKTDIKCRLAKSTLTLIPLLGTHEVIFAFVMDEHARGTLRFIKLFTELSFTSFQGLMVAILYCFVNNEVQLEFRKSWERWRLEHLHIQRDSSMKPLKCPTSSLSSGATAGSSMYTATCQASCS
Test: GLP-1 receptor potency, CRE luciferase reporter gene assay in BHK cells
Format: cell-based
Conditions: BHK cells expressing human GLP-1 receptor, read-out: EC50 GLP-1R
In short: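 Potency as cAMP-driven firefly luciferase signal after 3 h, 37° C exposure to 10-fold dilutions (final 1×10EE-13–1×10EE-6 M). Stable hGLP-1R/CRE-luc BHK clone, 5×10EE3 cells/well, medium containing 2% ovalbumin and 0.2% Pluronic F-68; EC50 (pM) from variable-slope non-linear regression.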

| EC50 [nM] | Structure (SMILES) |
| --- | --- |
| 0.0147 | CC(C)C[C@H](NC(=O)[C@H](Cc1ccc(O)cc1)NC(=O)[C@H](CCCCN)NC(=O)[C@H](CO)NC(=O)[C@H](CC(C)C)NC(=O)[C@H](CC(=O)O)NC(=O)[C@H](CO)NC(=O)[C@@H](NC(=O)[C@H](Cc1ccccc1)NC(=O)[C@@H](NC(=O)CNC(=O)[C@H](Cc1c[nH]cn1)NC(=O)C(C)(C)NC(=O)[C@@H](N)Cc1c[nH]cn1)[C@@H](C)O)[C@@H](C)O)C(=O)N[C@@H](CCC(=O)O)C(=O)N[C@@H](CO)C(=O)N[C@@H](CCCCN)C(=O)N[C@@H](CCCNC(=N)N)C(=O)N[C@@H](C)C(=O)N[C@@H](CCCNC(=N)N)C(=O)N[C@@H](CCC(=O)O)C(=O)N[C@@H](Cc1ccccc1)C(=O)N[C@H](C(=O)N[C@@H](CCC(N)=O)C(=O)N[C@@H](Cc1c[nH]c2ccccc12)C(=O)N[C@@H](CC(C)C)C(=O)N[C@@H](CC(C)C)C(=O)N[C@@H](CCCCNC(=O)CC[C@H](NC(=O)CC[C@H](NC(=O)CC[C@H](NC(=O)CCCCCCCCCCCCCCCCC(=O)O)C(=O)O)C(=O)O)C(=O)O)C(=O)N[C@H](C(N)=O)[C@@H](C)O)C(C)C [Example 34, N^ε28-[(4S)-4-carboxy-4-[[(4S)-4-carboxy-4-[[(4S)-4-carboxy-4-(17-carboxyheptadecanoylamino)butanoyl]amino]butanoyl]amino]butanoyl]-[Aib2,His3,Leu10,Glu15,Lys17,Arg20,Glu21,Leu27,Lys28]-Glucagon amide] (H-H[Aib]HGTFTSDLSKYLESKRAREFVQWLLK([γGlu-γGlu-γGlu-C18 diacid])T-NH2; N-terminus assumed) |
| 0.008 | CC(C)C[C@H](NC(=O)[C@H](Cc1ccc(O)cc1)NC(=O)[C@H](CCCNC(=N)N)NC(=O)[C@H](CO)NC(=O)[C@H](CC(C)C)NC(=O)[C@H](CC(=O)O)NC(=O)[C@H](CO)NC(=O)[C@@H](NC(=O)[C@H](Cc1ccccc1)NC(=O)[C@@H](NC(=O)CNC(=O)[C@H](CCC(N)=O)NC(=O)C(C)(C)NC(=O)[C@@H](N)Cc1c[nH]cn1)[C@@H](C)O)[C@@H](C)O)C(=O)N[C@@H](CC(=O)O)C(=O)N[C@@H](C)C(=O)N[C@@H](CCCNC(=N)N)C(=O)N[C@@H](CCCNC(=N)N)C(=O)N[C@@H](C)C(=O)N[C@@H](CCCNC(=N)N)C(=O)N[C@@H](CC(=O)O)C(=O)N[C@@H](Cc1ccccc1)C(=O)N[C@H](C(=O)N[C@@H](CCC(N)=O)C(=O)N[C@@H](Cc1c[nH]c2ccccc12)C(=O)N[C@@H](CC(C)C)C(=O)N[C@@H](CC(C)C)C(=O)N[C@@H](CCCCNC(=O)CC[C@H](NC(=O)CC[C@H](NC(=O)CC[C@H](NC(=O)CCCCCCCCCCCCCCCCC(=O)O)C(=O)O)C(=O)O)C(=O)O)C(=O)N[C@H](C(N)=O)[C@@H](C)O)C(C)C [Example 62, N^ε28-[(4S)-4-carboxy-4-[[(4S)-4-carboxy-4-[[(4S)-4-carboxy-4-(17-carboxyheptadecanoylamino)butanoyl]amino]butanoyl]amino]butanoyl]-[Aib2,Leu10,Arg12,Ala16,Arg20,Leu27,Lys28]-Glucagon amide] (H-H[Aib]QGTFTSDLSRYLDARRARDFVQWLLK([γGlu-γGlu-γGlu-C18 diacid])T-NH2; N-terminus assumed) |

From patent publication US9474790B2, “Stable, protracted GLP-1/glucagon receptor co-agonists for medical use” (Novo Nordisk A/S, priority 2013, dated 2016)
